Measured values published in patent publication US20250188075A1, “SUBSTITUTED HETEROCYCLIC CSNK1 INHIBITORS” (The Broad Institute, Inc., priority 2022, published 2025).

Columns and labels:
human CSNK1D = human CSNK1D (Homo sapiens (Human), UniProt P48730); experiment: CSNK1D assay (ADP-Glo, 1 μM ATP); format: biochemical; settings: median, read-out: CSNK1D IC50 [mol/l] (median)
Protocol: CSNK1D-inhibitory activity of compounds of the present invention in presence of 1 μM adenosine-tri-phosphate (ATP) was quantified employing the CSNK1D assay as described in the following paragraphs. In essence, the enzyme activity is measured by quantification of the adenosine-di-phosphate (ADP), which is generated as a co-product of the enzyme reaction, via the “ADP-Glo™ Kinase Assay” kit from the company Promega. This detection system works as follows: In a first step the ATP not consumed in the kinase reaction is quantitatively converted to CAMP employing an adenylate cyclase (“ADP-Glo-reagent”), then the adenylate cyclase is stopped and the ADP generated in the kinase reaction converted to ATP which generates in a luciferase-based reaction a glow-luminescence signal (“Kinase Detection Reagent”).
(§1) Recombinant fusion protein of N-terminal Glutathion-S-Transferase (GST) and full-length human CSNK1D, expressed by baculovirus infected insect cells and purified via Glutathion affinity chromatography, was purchased from Life Technologies (product no. PV3665) and used as enzyme. As substrate for the kinase reaction the biotinylated peptide Btn-Ahx-SGSEGDSESGEEEG (C-terminus in amide form) was used which can be purchased e.g. from the company Biosyntan (Berlin-Buch, Germany).
For the assay 50 nl of a 100-fold concentrated solution of the test compound in DMSO was pipetted into a white 1536-well microtiter plate (Greiner Bio-One, Frickenhausen, Germany), 2 μL of a solution of CSNK1D in aqueous assay buffer [50 mM HEPES pH 7.5, 10% (v/v) glycerol, 10 mM MgCl2, 50 mM NaCl, 1 mM dithiothreitol, 0.01% (w/v) bovine serum albumin, 0.01% (v/v) Triton X-100] were added and the mixture was incubated for 15 min at 22° C. to allow pre-binding of the test compounds to the enzyme before the start of the kinase reaction. Then the kinase reaction was started by the addition of 3 μL of a solution of ATP (1.67 μM=>final conc. in the 5 μL assay volume is 1 μM) and peptide substrate (50 μM=>final conc. in the 5 μL assay volume is 30 μM) in assay buffer and the resulting mixture was incubated for a reaction time of 30 min at 22° C. The concentration of CSNK1D was adjusted depending of the activity of the enzyme lot and was chosen appropriate to have the assay in the linear range, a typical concentration is about 0.5 ng/μL. The reaction was stopped by the addition of 2.5 μL of “ADP-Glo-reagent” (1:1.5 fold diluted with water) and the resulting mixture was incubated at 22° C. for 1 h to convert the ATP not consumed in the kinase reaction completely to CAMP. Subsequently 2.5 μL of the “kinase detection reagent” (1.2 fold more concentrated than recommended by the producer) were added, the resulting mixture was incubated at 22° C. for 1 h and then the luminescence measured with a suitable measurement instrument (e.g. Viewlux™ from Perkin-Elmer). The amount of emitted light was taken as a measure for the amount of ADP generated and thereby for the activity of the CSNK1D.
(§2) The data were normalised (enzyme reaction without inhibitor=0% inhibition, all other assay components but no enzyme=100% inhibition).

human CSNK1A1 = human CSNK1A1 (Homo sapiens (Human), UniProt P48729); experiment: CSNK1A1 high ATP assay (ADP-Glo, 1 mM ATP); format: biochemical; settings: median, read-out: CSNK1A1 High ATP assay IC50 [mol/l] (median)
Protocol: CSNK1A1-inhibitory activity of compounds of the present invention in presence of 1 mM adenosine-tri-phosphate (ATP) was quantified employing the CSNK1A1-high-ATP-assay as described in the following paragraphs. In essence, the enzyme activity is measured by quantification of the adenosine-di-phosphate (ADP), which is generated as a co-product of the enzyme reaction, via the “ADP-Glo™ Kinase Assay” kit from the company Promega. This detection system works as follows: In a first step the ATP not consumed in the kinase reaction is quantitatively converted to CAMP employing an adenylate cyclase (“ADP-Glo-reagent”), then the adenylate cyclase is stopped and the ADP generated in the kinase reaction converted to ATP which generates in a luciferase-based reaction a glow-luminescence signal (“Kinase Detection Reagent”).
as §1, with “CSNK1A1,” for “CSNK1D,”, “PV4174)” for “PV3665)”, “biotin-Ahx-KRRRAL-pS-VASLPGL” for “Btn-Ahx-SGSEGDSESGEEEG”
For the assay 50 nl of a 100 fold concentrated solution of the test compound in DMSO was pipetted into a white low volume 384-well microtiter plate (Greiner Bio-One, Frickenhausen, Germany), 2 μL of a solution of CSNK1A1 in aqueous assay buffer [50 mM HEPES pH 7.5, 10% (v/v) glycerol, 10 mM MgCl2, 50 mM NaCl, 1 mM dithiothreitol, 0.01% (w/v) bovine serum albumin, 0.01% (v/v) Triton X-100] were added and the mixture was incubated for 15 min at 22° C. to allow pre-binding of the test compounds to the enzyme before the start of the kinase reaction. Then the kinase reaction was started by the addition of 3 μL of a solution of ATP (1.67 mM=>final conc. in the 5 μL assay volume is 1 mM) and peptide substrate (167 μM=>final conc. in the 5 μL assay volume is 100 μM) in assay buffer and the resulting mixture was incubated for a reaction time of 30 min at 22° C. The concentration of CSNK1A1 was adjusted depending of the activity of the enzyme lot and was chosen appropriate to have the assay in the linear range, a typical concentration is about 0.4 ng/μL. The reaction was stopped by the addition of 2.5 μL of “ADP-Glo-reagent” (1:1.5 fold diluted with water) and the resulting mixture was incubated at 22° C. for 1 h to convert the ATP not consumed in the kinase reaction completely to CAMP. Subsequently 2.5 μL of the “kinase detection reagent” (1.2 fold more concentrated than recommended by the producer) were added, the resulting mixture was incubated at 22° C. for 1 h and then the luminescence measured with a suitable measurement instrument (e.g. Viewlux™ from Perkin-Elmer). The amount of emitted light was taken as a measure for the amount of ADP generated and thereby for the activity of the CSNK1A1.
as §2

Sequence of human CSNK1A1 (P48729 whole entry): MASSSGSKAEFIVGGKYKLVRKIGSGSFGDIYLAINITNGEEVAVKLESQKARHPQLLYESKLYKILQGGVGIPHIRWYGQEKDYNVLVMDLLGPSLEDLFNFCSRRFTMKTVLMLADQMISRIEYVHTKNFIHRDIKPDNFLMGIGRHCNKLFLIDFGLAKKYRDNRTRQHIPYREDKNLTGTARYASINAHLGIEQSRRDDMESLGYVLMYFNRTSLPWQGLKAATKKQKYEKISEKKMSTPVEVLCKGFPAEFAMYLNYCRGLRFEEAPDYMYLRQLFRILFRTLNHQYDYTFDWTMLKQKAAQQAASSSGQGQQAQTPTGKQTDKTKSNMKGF
Sequence of human CSNK1D (P48730 whole entry): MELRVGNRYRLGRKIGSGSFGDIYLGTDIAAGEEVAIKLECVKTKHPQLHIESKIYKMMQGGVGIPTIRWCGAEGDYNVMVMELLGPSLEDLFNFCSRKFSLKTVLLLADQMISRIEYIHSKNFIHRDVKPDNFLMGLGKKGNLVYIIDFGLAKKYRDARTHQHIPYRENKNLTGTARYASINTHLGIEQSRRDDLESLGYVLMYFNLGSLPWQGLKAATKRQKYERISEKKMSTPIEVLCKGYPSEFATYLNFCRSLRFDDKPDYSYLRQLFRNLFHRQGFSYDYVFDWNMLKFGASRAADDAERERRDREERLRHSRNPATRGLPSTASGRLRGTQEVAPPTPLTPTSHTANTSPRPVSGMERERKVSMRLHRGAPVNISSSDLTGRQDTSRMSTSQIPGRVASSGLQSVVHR

Row | Compound | IC50 (human CSNK1D) | IC50 (human CSNK1A1)
1 | Cc1nocc1CC(=O)Nc1cc(-c2[nH]c3cccnc3c2-c2ccccn2)ccn1 [Example 30, 2-(3-methylisoxazol-4-yl)-N-[4-[3-(2-pyridyl)-^1H-pyrrolo[3,2-b]pyridin-2-yl]-2-pyridyl]acetamide] | 6.69 nM | –
2 | O=C(Cc1cc(C2CC2)on1)Nc1cc(-c2[nH]c3cccnc3c2-c2ccccn2)ccn1 [Example 27, 2-(5-cyclopropylisoxazol-3-yl)-N-[4-[3-(2-pyridyl)-^1H-pyrrolo[3,2-b]pyridin-2-yl]-2-pyridyl]acetamide] | 6.38 nM | 244 nM
3 | O=C(Nc1cc(-c2[nH]c3ccc(F)nc3c2-c2ccccn2)ccn1)[C@@H](CC(F)F)c1ccc(F)cc1 [Example C2, reference compound] | 2.26 nM | 5.27 nM
4 | Cc1ncc(CC(=O)Nc2cc(-c3[nH]c4cccnc4c3-c3ccccn3)ccn2)o1 [Example 24, 2-(2-methyloxazol-5-yl)-N-[4-[3-(2-pyridyl)-^1H-pyrrolo[3,2-b]pyridin-2-yl]-2-pyridyl]acetamide] | 5.37 nM | –
5 | O=C(Cc1ccno1)Nc1cc(-c2[nH]c3cccnc3c2-c2ccccn2)ccn1 [Example 23, 2-isoxazol-5-yl-N-[4-[3-(2-pyridyl)-^1H-pyrrolo[3,2-b]pyridin-2-yl]-2-pyridyl]acetamide] | 4.68 nM | 50.1 nM
6 | Cn1nc(CC(=O)Nc2cc(-c3[nH]c4cccnc4c3-c3ccccn3)ccn2)cc1C(F)(F)F [Example 21, 2-[1-methyl-5-(trifluoromethyl)pyrazol-3-yl]-N-[4-[3-(2-pyridyl)-^1H-pyrrolo[3,2-b]pyridin-2-yl]-2-pyridyl]acetamide] | 4.88 nM | 86.6 nM
7 | Cn1cc(C(CC(F)F)C(=O)Nc2cc(-c3[nH]c4cccnc4c3-c3ccccn3)ccn2)cn1 (centres unmarked) [Example 19, 4,4-difluoro-2-(1-methylpyrazol-4-yl)-N-[4-[3-(2-pyridyl)-^1H-pyrrolo[3,2-b]pyridin-2-yl]-2-pyridyl]butanamide] | 13.9 nM | 291 nM
8 | Cc1nc(CC(=O)Nc2cc(-c3[nH]c4cccnc4c3-c3ccccn3)ccn2)co1 [Example 25, 2-(2-methyloxazol-4-yl)-N-[4-[3-(2-pyridyl)-^1H-pyrrolo[3,2-b]pyridin-2-yl]-2-pyridyl]acetamide] | 8.44 nM | –
9 | O=C(Nc1cc(-c2[nH]c3nccnc3c2-c2ccccn2)ccn1)[C@@H](CC(F)F)c1ccc(F)cc1 [Example C1, reference compound] | 3.92 nM | 20.1 nM
10 | O=C(Cc1ccon1)Nc1cc(-c2[nH]c3cccnc3c2-c2ccccn2)ccn1 [Example 10, 2-isoxazol-3-yl-N-[4-[3-(2-pyridyl)-^1H-pyrrolo[3,2-b]pyridin-2-yl]-2-pyridyl]acetamide] | 5.6 nM | –
11 | Cc1cc(CC(=O)Nc2cc(-c3[nH]c4cccnc4c3-c3ccccn3)ccn2)on1 [Example 13, 2-(3-methylisoxazol-5-yl)-N-[4-[3-(2-pyridyl)-^1H-pyrrolo[3,2-b]pyridin-2-yl]-2-pyridyl]acetamide] | 5.68 nM | 41.3 nM
12 | Cc1cc(CC(=O)Nc2cc(-c3[nH]c4cccnc4c3-c3ccccn3)ccn2)no1 [Example 26, 2-(5-methylisoxazol-3-yl)-N-[4-[3-(2-pyridyl)-^1H-pyrrolo[3,2-b]pyridin-2-yl]-2-pyridyl]acetamide] | 6.64 nM | 90.8 nM
13 | Cc1cc(CC(=O)Nc2cc(-c3[nH]c4cccnc4c3-c3ccccn3)ccn2)n(C)n1 [Example 14] | 4.88 nM | 30.6 nM
14 | Cn1nc(CC(=O)Nc2cc(-c3[nH]c4cccnc4c3-c3ccccn3)ccn2)cc1C1CC1 [Example 29, 2-(5-cyclopropyl-1-methyl-pyrazol-3-yl)-N-[4-[3-(2-pyridyl)-^1H-pyrrolo[3,2-b]pyridin-2-yl]-2-pyridyl]acetamide] | 6.48 nM | 188 nM
15 | Cc1cc(CC(=O)Nc2cc(-c3[nH]c4cccnc4c3-c3ccccn3)ccn2)nn1C [Example 16, 2-(1,5-dimethylpyrazol-3-yl)-N-[4-[3-(2-pyridyl)-^1H-pyrrolo[3,2-b]pyridin-2-yl]-2-pyridyl]acetamide] | 6.57 nM | 70.8 nM
16 | O=C(Cc1ccns1)Nc1cc(-c2[nH]c3cccnc3c2-c2ccccn2)ccn1 [Example 22, 2-isothiazol-5-yl-N-[4-[3-(2-pyridyl)-^1H-pyrrolo[3,2-b]pyridin-2-yl]-2-pyridyl]acetamide] | 4.84 nM | 41.2 nM
17 | O=C(Cc1cnc2ccccc2n1)Nc1cc(-c2[nH]c3cccnc3c2-c2ccccn2)ccn1 [Example 6, N-[4-[3-(2-pyridyl)-^1H-pyrrolo[3,2-b]pyridin-2-yl]-2-pyridyl]-2-quinoxalin-2-yl-acetamide] | 3.44 nM | 6.06 nM
18 | O=C(Cc1ccn(CC(F)(F)F)n1)Nc1cc(-c2[nH]c3cccnc3c2-c2ccccn2)ccn1 [Example 20, N-[4-[3-(2-pyridyl)-^1H-pyrrolo[3,2-b]pyridin-2-yl]-2-pyridyl]-2-[1-(2,2,2-trifluoroethyl)pyrazol-3-yl]acetamide] | 4.93 nM | 98.7 nM
19 | Cc1ocnc1CC(=O)Nc1cc(-c2[nH]c3cccnc3c2-c2ccccn2)ccn1 [Example 11, 2-(5-methyloxazol-4-yl)-N-[4-[3-(2-pyridyl)-^1H-pyrrolo[3,2-b]pyridin-2-yl]-2-pyridyl]acetamide] | 8.09 nM | –
20 | Cc1nn(C)cc1CC(=O)Nc1cc(-c2[nH]c3cccnc3c2-c2ccccn2)ccn1 [Example 9, 2-(1,3-dimethylpyrazol-4-yl)-N-[4-[3-(2-pyridyl)-^1H-pyrrolo[3,2-b]pyridin-2-yl]-2-pyridyl]acetamide] | 5.66 nM | –
21 | CC(C)n1ccc(CC(=O)Nc2cc(-c3[nH]c4cccnc4c3-c3ccccn3)ccn2)n1 [Example 28, 2-(1-isopropylpyrazol-3-yl)-N-[4-[3-(2-pyridyl)-^1H-pyrrolo[3,2-b]pyridin-2-yl]-2-pyridyl]acetamide] | 6.3 nM | –
